The compounds below were run on multidrug-resistant (MDR) strains of Mycobacterium tuberculosis (assay: microbe, parasite or virus in culture). Settings: read-out: MIC (μg/mL) MDR Strain.
Type: cell-based

Structure (SMILES) | MIC
Cc1ccc2c(ccc[n+]2CC(=O)c2ccccc2[N+](=O)[O-])c1.[Br-] [Compound 3a, 6-Methyl-1-(2-(2-nitrophenyl)-2-oxoethyl)quinolin-1-ium bromide] | 64 µg/mL
Cc1ccc2c(ccc[n+]2CC(=O)c2ccc(F)cc2)c1.[Br-] [Compound 3b, 1-(2-(4-Fluorophenyl)-2-oxoethyl)-6-methylquinolin-1-ium bromide] | 16 µg/mL
Cc1ccc2c(ccc[n+]2CC(=O)c2cc(C(F)(F)F)cc(C(F)(F)F)c2)c1.[Br-] [Compound 3c, 1-(2-(3,5-Bis(trifluoromethyl)phenyl)-2-oxoethyl)-6-methylquinolin-1-ium bromide] | 32 µg/mL
